# Data taken from ChEMBL document CHEMBL3244015, “Synthesis and biological evaluation of a tetrahydroisoquinoline derivative possessing selective beta2-adrenergic agonist activity” (J Med Chem, 1977).
# Active and inactive are the calls of the source. No cut-off for these calls is given here.
# How the values were obtained:
# [1] = target: Beta-2 adrenergic receptor (Cavia porcellus) (UniProt Q8K4Z4); experiment: Agonist activity at beta-2 adrenergic receptor in isolated guinea pig trachea assessed as induction of relaxation of tracheal muscle at 10^-9 to 10^-3 M
# Chain of Beta-2 adrenergic receptor (Cavia porcellus) (Q8K4Z4 whole entry, looked up): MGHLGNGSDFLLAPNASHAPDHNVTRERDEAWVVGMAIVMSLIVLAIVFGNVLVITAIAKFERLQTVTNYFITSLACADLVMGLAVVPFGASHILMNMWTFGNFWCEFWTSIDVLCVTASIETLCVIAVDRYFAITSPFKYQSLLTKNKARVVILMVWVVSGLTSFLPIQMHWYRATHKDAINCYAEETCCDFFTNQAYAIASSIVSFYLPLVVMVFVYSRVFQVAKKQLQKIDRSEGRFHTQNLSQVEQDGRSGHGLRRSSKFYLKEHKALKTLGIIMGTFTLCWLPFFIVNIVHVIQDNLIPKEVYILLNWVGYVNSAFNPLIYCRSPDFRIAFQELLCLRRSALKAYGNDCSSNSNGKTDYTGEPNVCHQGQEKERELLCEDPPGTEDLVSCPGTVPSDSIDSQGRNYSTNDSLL
# [2] = target: Beta-1 adrenergic receptor (Cavia porcellus) (UniProt B0FL73); experiment: Agonist activity at beta-1 adrenergic receptor in isolated guinea pig atrial preparation assessed as induction of chronotrophic response at 10^-9 to 10^-3 M; conditions: Cardiac atrium
# Chain of Beta-1 adrenergic receptor (Cavia porcellus) (B0FL73 1-467): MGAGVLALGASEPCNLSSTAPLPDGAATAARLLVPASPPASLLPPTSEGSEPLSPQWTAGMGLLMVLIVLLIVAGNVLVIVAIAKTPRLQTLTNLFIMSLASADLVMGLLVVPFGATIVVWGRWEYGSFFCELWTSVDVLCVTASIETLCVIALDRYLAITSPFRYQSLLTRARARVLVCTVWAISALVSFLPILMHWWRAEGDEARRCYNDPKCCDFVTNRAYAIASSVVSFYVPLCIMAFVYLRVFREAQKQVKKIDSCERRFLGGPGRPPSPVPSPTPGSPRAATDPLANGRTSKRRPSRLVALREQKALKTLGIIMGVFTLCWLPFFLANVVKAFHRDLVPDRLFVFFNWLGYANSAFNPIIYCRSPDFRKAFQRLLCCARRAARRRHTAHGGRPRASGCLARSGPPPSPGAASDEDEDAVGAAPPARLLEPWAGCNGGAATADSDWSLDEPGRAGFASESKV
# [3] = target: Beta-2 adrenergic receptor (Cavia porcellus) (UniProt Q8K4Z4); experiment: Agonist activity at beta-2 adrenergic receptor in isolated guinea pig trachea assessed as induction of relaxation of tracheal muscle
Activity [1],Activity [2],ED50 [3] [×10⁻⁵ M],SMILES
Active,Active,,COc1cc(CC(CN)c2ccc(O)c(O)c2)cc(OC)c1OC (centres undefined)
,inactive,1,COc1cc(CC2CNCc3cc(O)c(O)cc32)cc(OC)c1OC (centres undefined)
